Laboratory results from US20090069417A1, “CAROTENOID OXIDATION PRODUCTS AS CHEMOPREVENTIVE AND CHEMOTHERAPEUTIC AGENTS” (priority 2005, published 2009).

Assays:
[1] = tested on: antioxidant response element (ARE); assay: ARE reporter gene (luciferase) assay, transient transfection; assay type: cell-based, human; conditions: FIG. 1, mean of 3-6 experiments, expressed as ratio to stimulation obtained with tBHQ, compared in words
Source text: ARE reporter constructs were provided by Dr. J. J. Gipp (University of Wisconsin Medical School, Madison, Wis.; Ref 18). NQO1hARE-tk-luc and GCShARE4-tk-luc contain sequences of the active response elements from the promoters of human NQO1 and GCS heavy subunit, respectively. GCShARE4m-tk-luc, a non-active mutant form of the latter construct, contains a single base mutation in the relevant sequence.
Cell transfection and reporter gene assays were generally carried out as follows. Some variations may be adopted for different cell lines: Cells were transfected using TFx-50 reagent (Promega, Madison, Wis.) with ca. 0.07 μg of DNA containing 0.05 μg of reporter plasmid and 0.02 μg of Renilla luciferase expression vector (P-RL-null vector, Promega) as an internal standard. For this purpose, cells were seeded in 24-well plates (100,000 cells per well). After 1 day, cells were rinsed twice with the appropriate culture medium without serum, followed by the addition of 0.2 mL of medium containing DNA and TFx-50 reagent at a charge ratio of 1:3. The cells were then incubated for 30 minutes at 37° C. in 95% air/5% CO2. Four hundred microliters of medium containing 3% charcoal-stripped delipidated FCS were added and incubation continued for 8 hours. This was then replaced by medium supplemented with 3% delipidated FCS and the test compounds and cells were incubated for another 16 hours. Cell extracts were prepared for luciferase reporter assay (Dual Luciferase Reporter Assay System, Promega) according to the manufacturer's instructions.
The effects of lycopene and several lycopene derivatives on antioxidant response element (ARE) induction were tested in all of the cancer cell lines mentioned above. The assay employed measures the transcriptional activity of the antioxidant response element which is activated by the Nrf2 transcription factor, and its activation by carotenoids and their derivatives. Parts of a promoter of the genes of interest were fused to a luciferase reporter gene as described in Materials and Methods. The constructs were transfected into the cells. Cells were incubated with carotenoids or derivatives and activation of transcription was measured.
The results are depicted in FIG. 1 as the mean of 3-6 experiments. The standard errors of the mean (SEs) (not shown) were not higher than 10% of the mean. In order to decrease the variation between experiments, the results are expressed as the ratio of stimulation obtained with each specific derivative to that obtained with tBHQ (a well known positive control in this system).

[2] = tested on: antioxidant response element (ARE) in MCF-7 and T47D cells; assay: ARE induction in human breast cancer cell lines (FIG. 2A); assay type: cell-based; conditions: compared with lycopene
Procedure: Cell transfection and reporter gene assays were generally carried out as follows. Some variations may be adopted for different cell lines: Cells were transfected using TFx-50 reagent (Promega, Madison, Wis.) with ca. 0.07 μg of DNA containing 0.05 μg of reporter plasmid and 0.02 μg of Renilla luciferase expression vector (P-RL-null vector, Promega) as an internal standard. For this purpose, cells were seeded in 24-well plates (100,000 cells per well). After 1 day, cells were rinsed twice with the appropriate culture medium without serum, followed by the addition of 0.2 mL of medium containing DNA and TFx-50 reagent at a charge ratio of 1:3. The cells were then incubated for 30 minutes at 37° C. in 95% air/5% CO2. Four hundred microliters of medium containing 3% charcoal-stripped delipidated FCS were added and incubation continued for 8 hours. This was then replaced by medium supplemented with 3% delipidated FCS and the test compounds and cells were incubated for another 16 hours. Cell extracts were prepared for luciferase reporter assay (Dual Luciferase Reporter Assay System, Promega) according to the manufacturer's instructions. […]

[3] = tested on: MCF-7 and T47D cells; assay: Cell proliferation, [3H]thymidine incorporation, mammary cancer cells (FIG. 2B); assay type: cell-based, human; conditions: compared with lycopene
Procedure: MCF-7, human mammary cancer cells were purchased from American Type Culture Collection (Rockwell, Md.). MCF-7 cells were grown in DMEM containing penicillin (100 units/mL), streptomycin (0.1 mg/mL), nystatin (12.5 Ag/mL), 0.6 μg/mL insulin, and 10% FCS. T47D, human mammary cancer cell line, were provided by Dr. Yafa Keidar (Tel-Aviv University, Israel) and were grown in DMEM medium. LNCaP human prostate cancer cells were purchased from American Type Culture Collection (Rockwell, Md.) and were grown on RPMI medium. The medium contained penicillin (100 U/ml), streptomycin (0.1 mg/ml) nystatin (12.5 μg/ml), and 10% fetal calf serum (FCS), and 6 μg/ml insulin. Prior to each experiment, the cells were depleted of steroid hormones and maintained for 3-5 days in phenol red-free DMEM supplemented with 10% DCC FCS.
MCF-7, LNCaP and T47D cells were seeded in 96-well plates. After one day, the medium was replaced with one containing the various materials. In each day of the experiment one plate was used for the thymidine incorporation assay. Thymidine incorporation was determined as follows: 2.5 μCi/well of [^3H]thymidine (specific radioactivity 5 mCi/mmol) containing cold thymidine (100 μM) was added and the plate were incubated (37° C.) for 1 hr (MCF-7 cells) or for 3 hr (LNCaP, T47D cells). […] Radioactivity was determined by a radioactive image analyzer (BAS 1000, Fuji, Japan). […]

[4] = tested on: HL-60 human promyelocytic leukemia cells; conditions: HL-60 cells; cited from earlier work
[5] = tested on: WB-F344 rat liver epithelial cells; conditions: cited from earlier work
[6] = tested on: mammary, endometrial, lung and leukemic cancer cell growth; conditions: lung and leukemic cancer cells, dose-dependent, read-out: IC50, inhibition of cancer cell growth; cited from earlier work
[7] = tested on: reporter genes fused with ARE sequences; conditions: transiently transfected cancer cells; cited from earlier work

In the case of `C\C(C=O)=C/C=C/C=C(C)/C=C/C=C(\C)C=O` [8′,12, diapo-8′,12-lycopendial], the “stimulation of transcription of ARE reporter genes” value (“stimulation … of ARE reporter genes” for short) [1] is reported as “more active than the parent molecule lycopene” and the “stimulation … of ARE reporter genes” value ([1]; listed as 8′12) is reported as “most active”.
For `CC(/C=C/C=O)=C\C=C\C=C(C)\C=C\C=O` [10,10′, diapo-10,10′-lycopendial], the “stimulation … of ARE reporter genes” value [1] was “more active than the parent molecule lycopene”, the “stimulation … of ARE reporter genes” value ([1]; listed as 10′10) was “most active” and the ARE induction [2] was “more active than lycopene”. For the same compound, the “inhibition of cell proliferation” value [3] was “more active than lycopene”.
For `CC(=O)/C=C/C=C(C)/C=C/C=O` [(E,E,E)-4-methyl-8-oxo-2,4,6-nonatrienal], the induction of apoptosis [4] is given as “induces apoptosis”.
For diapo-8′,15-lycopendial, the “stimulation … of ARE reporter genes” value [1] was “more active than the parent molecule lycopene” and the “stimulation … of ARE reporter genes” value ([1]; listed as 8′15) was “also active”.
In the case of `C\C(C=O)=C/C=C/C(C)=C/C=C/C=C(C)/C=C/C=C(\C)C=O` [8,8′, diapo-8,8′-lycopendial], the “stimulation … of ARE reporter genes” value [1] is reported as “much less active”, the ARE induction [2] is reported as “less active” and the “inhibition of cell proliferation” value [3] is reported as “less active”.
In the case of `C\C(C=O)=C/C=C/C=C(C)/C=C/C=C(C)/C=C/C=O` [2,7,11-trimethyl-tetradecahexaene-1,14-dial], the “stimulation of gap junctional communication (GJC)” value [5] is listed as “stimulates gap junctional communication”.
With `C\C(C=O)=C/C=C/C=C(\C)C=O` [12,12′, diapo-12,12′-lycopendial] the “stimulation … of ARE reporter genes” value [1] was “much less active”.
In the case of `CC(C)=CCC/C(C)=C/C=C/C(C)=C/C=C/C(C)=C/C=C/C=C(C)/C=C/C=C(C)/C=C/C=C(\C)CCC=C(C)C` [lycopene, Lycopene], the IC50 [6] is listed as roughly 2 µM and the “transactivation of ARE reporter genes” value [7] is listed as “capable of transactivating the expression of reporter genes fused with ARE sequences”.
